{"source": "patent US8071336B2", "about": "“Antibody-based therapeutics with enhanced ADCC activity” (Genzyme Corporation, priority 2005, dated 2011)", "key": {"[1]": {"test_system": "Hybridoma cells expressing TEM mAb A", "test": "N-glycans of TEM mAb A from inhibitor-treated hybridoma cells (MALDI-TOF MS)", "format": "cell-based", "conditions": "20 μg/ml mannostatin A, 0.5 mM NB-DNJ, or 2 μg/ml kifunensine at days 0 and 2", "protocol": "Hybridoma cells expressing TEM mAb A, an antibody against a tumor vascular associated antigen, were grown in medium containing 1% fetal bovine serum with low IgG (Invitrogen Corp.), 5 μg/ml bovine insulin, 5 μg/ml human transferrin, 0.01 mM ethanolamine and 25 nM sodium selenite. Cells were treated once with the following inhibitors: 20 μg/ml mannostatin A, and 0.5 mM NB-DNJ for 4 days; and twice with 2 μg/ml kifunensine at days 0 and 2; or cultured without inhibitors (“control”).\nN-linked glycans from antibodies purified as described in Example 1 were released with PNGase F. After filtration through 10 kDa filters, the filtrates were treated with Dowex AG-50 (H^+), AG501, and […] sequentially. Aliquots of samples were applied to a target, followed by sDHB matrix. The MALDI-TOF mass spectra were acquired using a Voyager-DE PRO Biospectrometry Workstation (Applied Biosystems, Foster City, Calif., USA) in the positive-ion and reflective mode."}, "[2]": {"test_system": "CHO cells expressing TEM mAb B", "test": "Batch cultures of CHO cells expressing TEM mAb B treated with kifunensine (shaker flasks)", "format": "cell-based, Chinese hamster", "protocol": "The production of TEM mAb B from batch cultures treated with various amounts of kifunensine or untreated was evaluated. CHO cells in shaker flasks were treated with 0, 0.5, 1, 1.5, or 2 μg/ml in a single or three additions (4 days apart) and cultured for 11 days. Cell viability (using trypan blue) and cell counts were assessed at least every other day."}, "[3]": {"test_system": "CHO cell clone expressing TEM mAb A", "test": "Titration of kifunensine concentration, N-glycans of TEM mAb A (MALDI-TOF MS)", "format": "cell-based, Chinese hamster", "conditions": "for glycan structures of the expressed antibody: 11 days", "protocol": "To investigate the impact of mixed oligomannose and complex-type glycans on antibody function, cells expressing TEM mAb A were treated with various amounts of kifunensine. In the first experiment, a CHO cell clone expressing TEM mAb A was treated with 0, 4, 20, 100, 500 and 2500 ng/ml of kifunensine for 11 days. The medium was harvested, and the antibody was purified using a protein A column. Fractions containing protein peaks were pooled and dialyzed into PBS. A second titration experiment was performed with a narrower range of kifunensine concentration, specifically, from 20 to 100 ng/ml. After treatment for 11 days, 50 ml of medium from each treatment condition was harvested, and the antibody was purified. Peak-containing fractions were pooled, buffer-exchanged into PBS using Centricon® filters with repeated centrifugation. Aliquots of TEM mAb A antibody samples were applied to a 4-12% NuPAGE and stained with Coomassie blue to confirm purity. The amount of fucosylated and non-fucosylated glycans in antibodies from each kifunensine treatment in the second titration experiment was estimated by calculating the area of each individual glycan peak in MALDI-TOF MS spectra."}, "[4]": {"conditions": "after removal of most of the galactose residues; cited from earlier work"}, "[5]": {"conditions": "after removal of most of the galactose residues; cited from earlier work", "remark": "listed apart in the source"}}}
{"compound": "CS[C@@H]1[C@@H](N)[C@@H](O)[C@@H](O)[C@H]1O", "note": "[mannostatin A]", "values": [{"measurement": "effect on glycosylation of the expressed antibody", "setting": "[1]", "result": "No alteration in glycosylation"}]}
{"compound": "O=C1N[C@@H]2[C@@H](O)[C@@H](O)[C@H](O)[C@@H](CO)N2C1=O", "note": "[kifunensine]", "values": [{"measurement": "Xvmax (viable cells at day of peak cell density)", "setting": "[2]; 0.5 μg/ml kif sup. 3x (three additions), 11 days", "result": "3.5 ×10^6 cells"}, {"measurement": "Xvmax (viable cells at day of peak cell density)", "setting": "[2]; 0.5 μg/ml kif, single addition, 11 days", "result": "3.5 ×10^6 cells"}, {"measurement": "Xvmax (viable cells at day of peak cell density)", "setting": "[2]; 1 μg/ml kif sup. 3x (three additions), 11 days", "result": "1.6 ×10^6 cells"}, {"measurement": "Xvmax (viable cells at day of peak cell density)", "setting": "[2]; 1 μg/ml kif, single addition, 11 days", "result": "2.7 ×10^6 cells"}, {"measurement": "Xvmax (viable cells at day of peak cell density)", "setting": "[2]; 1.5 μg/ml kif sup. 3x (three additions), 11 days", "result": "1.6 ×10^6 cells"}, {"measurement": "Xvmax (viable cells at day of peak cell density)", "setting": "[2]; 1.5 μg/ml kif, single addition, 11 days", "result": "3.8 ×10^6 cells"}, {"measurement": "Xvmax (viable cells at day of peak cell density)", "setting": "[2]; 2 μg/ml kif sup. 3x (three additions), 11 days", "result": "1.7 ×10^6 cells"}, {"measurement": "Xvmax (viable cells at day of peak cell density)", "setting": "[2]; 2 μg/ml kif, single addition, 11 days", "result": "2.1 ×10^6 cells"}, {"measurement": "cell viability (trypan blue)", "setting": "[2]; FIG. 10A, 0 to 2 μg/ml kifunensine, 1 or 3 additions, 11 days", "result": "comparable"}, {"measurement": "cell density", "setting": "[2]; FIG. 10B, kifunensine-treated vs untreated cells", "result": "lower"}, {"measurement": "glycan structures of the expressed antibody", "setting": "[2]; single kifunensine treatment at 0.5 μg/ml", "result": "enough to result in the production of oligomannose-type structures"}, {"measurement": "cell density", "setting": "[2]; three additions of kifunensine vs untreated control or single treatment", "result": "much lower cell density"}, {"measurement": "effect on glycosylation of the expressed antibody", "setting": "[1]", "result": "more effective in blocking the glycosylation to complex-type structures than NB-DNJ"}, {"measurement": "glycan structures of the expressed antibody", "setting": "[3]; 20 ng/ml kifunensine", "result": "only a small amount of oligomannose structures (Man5/Man6)"}, {"measurement": "non-fucosylated glycans of the expressed antibody", "setting": "[3]; 60 ng/ml or higher kifunensine, estimated from MALDI-TOF MS peak areas", "result": "> 80", "unit": "%"}, {"measurement": "glycan structures of the expressed antibody", "setting": "[3]; 100 ng/ml kifunensine", "result": "complete oligomannose structures"}]}
{"compound": "Campath®: a humanized mAb IgG1", "values": [{"measurement": "complement lysis activity", "setting": "[4]", "result": "reduced complement lysis activity"}, {"measurement": "ADCC", "setting": "[5]", "result": "no effect on ADCC"}]}
{"compound": "CCCCN1C[C@H](O)[C@@H](O)[C@H](O)[C@H]1CO", "note": "[NB-DNJ, N-butyl-DNJ]", "values": [{"measurement": "effect on glycosylation of the expressed antibody", "setting": "[1]", "result": "significant amounts of Glc1Man9GlcGNAc2 (Man9Glc)"}]}
